From paper PMC9686653, “Bioengineered Nisin A Derivatives Display Enhanced Activity against Clinical Neonatal Pathogens” (Antibiotics, 2022)
Converted amounts (≈) assume the structure as drawn. Marks after values point to notes of the source that are not given here. Where no end group is shown, it is not given here.

Experiments:
S. agalactiae CIT 67 = assay: Broth MIC assay; type: cell-based, Streptococcus agalactiae
Protocol: (§1) MIC determinations were carried out in triplicate in 96-well microtiter plates (Sarstedt, Newton, NC, USA) as previously described. Initially, 200µL of 1% bovine serum albumin (BSA) (Sigma-Aldrich, St. Louis, MO, USA) (in PBS) was added to the plates which were incubated at 37 °C for 30 min. The solution was removed, plates were washed with 200 µL PBS and then air dried in a laminar flow hood. Target strains (Streptococcus agalactiae, Staphylococcus capitis and Lactococcus lactis) were grown overnight in suitable media under appropriate conditions and were subsequently sub-cultured into fresh broth and allowed to grow to an optical density of ~0.5 (OD600). The culture was then diluted to a final concentration of 10^5 CFU mL^−1 in a volume of 1 mL. The peptides were resuspended in appropriate media to a stock concentration of […] (S. agalactiae and S. capitis strains) and […] (L. lactis strains). Nisin A and nisin derivatives were adjusted to a starting concentration of 15 µM (S. agalactiae and S. capitis strains) or 5 µM (L. lactis strains). […] An aliquot of 100 µL of peptides and or antibiotics were added to the first well, mixed and then 2-fold serial dilutions of each peptide were made in TSBYE broth. Then, 100 µL of target strain was added to each test well, and the plates were incubated at 30 °C or 37 °C for 16 h. The MIC was read as the lowest peptide concentration causing inhibition of visible growth. Experiments were performed in triplicate.

S. capitis AY41 = assay: microbe, parasite or virus in culture; type: cell-based, Staphylococcus capitis
Protocol: as §1

[1] = test system: clinical isolates of S. agalactiae (n = 5) and S. capitis (n = 5); assay: Deferred antagonism agar-based assay; type: cell-based, Streptococcus agalactiae, Staphylococcus capitis; conditions: pathogenic indicators, n = 10
Protocol: All plates were supplemented with sub-inhibitory concentration (10 µg/L) of nisin in the form of nisaplin to ensure induction of the nisin mutants.
Site-saturation mutagenesis of three codons, including threonine, lysine and methionine, at positions 2, 12 and 17 of the nisA gene, was carried out as described previously. Briefly, pDF23 (pCI372-PV) was used as a template and oligonucleotides, NisT2deg-FOR and REV, NisK12deg-FOR and REV and Nis17deg-FOR and REV, containing an NNK codon potentially encoding for all twenty standard amino acids. Deferred antagonism agar-based assays were employed to assess the bioactivity of the nisin derivatives (PV, K12X-PV, T2X-PV, and M17X-PV) produced by each strain. Briefly, fresh overnight cultures of each L. lactis test culture was replicated on GM17/TSBYE agar plates containing 0.1% nisaplin using a 96-pin replicator (Boekel, Feasterville, PA, USA) and incubated overnight at 30 °C before being exposed to ultraviolet radiation for 45 min. The plates were then overlayed with GM17/TYSBYE agar (0.75% agar) and seeded (0.5% inoculum) with either Lactococcus lactis MG1614 (NSR-), the nisin resistance protein-expressing indicator strain L. lactis MG1614 pNP40 (NSR+) or TSBYE agar seeded with Staphylococcus capitis (NSR+) or Streptococcus agalactiae (NSR+) isolates. […]

S. capitis BA06 = assay: Broth MIC assay; type: cell-based, Staphylococcus capitis; conditions: Staphylococcus capitis, BA06, 16 h
Protocol: as §1

S. capitis BD01 = assay: Broth MIC assay; type: cell-based, Staphylococcus capitis
Protocol: as §1

S. capitis AV80 = assay: Broth MIC assay; type: cell-based; conditions: Staphylococcus capitis, AV80, 16 h
Protocol: as §1

S. capitis AR18 = assay: Broth MIC assay; type: cell-based; conditions: Staphylococcus capitis, AR18, 16 h
Protocol: as §1

[2] = cited from earlier work
Excerpt: NSR degrades nisin by cleaving the pept ...

S. agalactiae CIT 239 = assay: Broth MIC assay; type: cell-based, Streptococcus agalactiae; conditions: broth microdilution in TSBYE, 10^5 CFU/mL, 16 h, 37 °C; average of three independent biological repeats
Protocol: as §1

S. agalactiae CIT 85 = assay: Broth MIC assay; type: cell-based, Streptococcus agalactiae; conditions: broth microdilution in TSBYE, 10^5 CFU/mL, 16 h, 37 °C; average of three independent biological repeats
Protocol: as §1

S. agalactiae CIT 87 = assay: Broth MIC assay; type: cell-based, Streptococcus agalactiae; conditions: broth microdilution in TSBYE, 10^5 CFU/mL, 16 h, 37 °C; average of three independent biological repeats
Protocol: as §1

S. agalactiae CIT 364 = assay: Broth MIC assay; type: cell-based, Streptococcus agalactiae; conditions: broth microdilution in TSBYE, 10^5 CFU/mL, 16 h, 37 °C; average of three independent biological repeats
Protocol: as §1

[3] = broth microdilution in TSBYE, 10^5 CFU/mL, 16 h, 37 °C, average of three independent biological repeats

Molecule: C=C(NC(=O)[C@@H](NC(=O)[C@H](Cc1c[nH]cn1)NC(=O)[C@@H](NC(=O)[C@@H]1CCCN1C(=O)[C@@H]1CS[C@@H](C)[C@H]2NC(=O)[C@H](C)NC(=O)[C@H](NC(=O)[C@H](CCCCN)NC(=O)[C@H](CCSC)NC(=O)[C@H](CC(N)=O)NC(=O)[C@@H]3CS[C@@H](C)[C@@H](NC(=O)[C@H](CCCCN)NC(=O)[C@@H]4CS[C@@H](C)[C@@H](NC(=O)[C@@H]5CSC[C@@H](NC(=O)[C@H](C)NC(=O)[C@@H](N)[C@@H](C)CC)C(=O)N[C@@H]([C@@H](C)CC)C(=O)NC(=C)C(=O)N[C@@H](CC(C)C)C(=O)N5)C(=O)N5CCC[C@H]5C(=O)NCC(=O)N4)C(=O)NCC(=O)N[C@@H](C)C(=O)N[C@@H](CC(C)C)C(=O)N[C@@H](CCSC)C(=O)NCC(=O)N3)[C@H](C)SC[C@H](NC2=O)C(=O)N[C@@H](Cc2c[nH]cn2)C(=O)N1)C(C)C)C(C)C)C(=O)N[C@@H](CCCCN)C(=O)O [T2A-PV]
- fold decrease in specific activity compared to nisin A (S. agalactiae CIT 67; from MIC): 2 fold
- fold decrease in specific activity compared to nisin PV (S. agalactiae CIT 67; from MIC): 4 fold
- MIC (S. capitis AY41; 16 h): 12.5 * µg/mL
- fold decrease in potency compared to nisin PV (S. capitis AY41; from MIC): 2 fold
- fold increase in potency compared to nisin A (S. capitis AY41; from MIC): 2 fold
- bioactivity (zone of inhibition) of the producing strain [1]: not apparent against the pathogenic isolates

Molecule: CN[C@H](CC(C)C)C(=O)N[C@H]1C(=O)N[C@@H](CC(N)=O)C(=O)N[C@H]2C(=O)N[C@H]3C(=O)N[C@H](C(=O)N[C@H](C(=O)O)c4cc(O)cc(O)c4-c4cc3ccc4O)[C@H](O)c3ccc(c(Cl)c3)Oc3cc2cc(c3O[C@@H]2O[C@H](CO)[C@@H](O)[C@H](O)[C@H]2O[C@H]2C[C@](C)(N)[C@H](O)[C@H](C)O2)Oc2ccc(cc2Cl)[C@H]1O [Vancomycin, vancomycin]
- MIC (S. capitis AY41; Staphylococcus capitis, AY41, 16 h): 1.56 µg/mL (≈ 1.08 µM)
- MIC (S. capitis BA06): 1.56 µg/mL (≈ 1.08 µM)
- MIC (S. capitis BD01; Staphylococcus capitis, BD01, 16 h): 3.13 µg/mL (≈ 2.16 µM)
- MIC (S. capitis AV80): 3.13 µg/mL (≈ 2.16 µM)
- MIC (S. capitis AR18): 1.56 µg/mL (≈ 1.08 µM)

Molecule: nisin 1–28: truncated nisin structure left after NSR cleavage (ITSISLCTPGCKTGALMGCNMKTATCHC; ends and bridges not checked; also: lantibiotic thioether rings (Lan/MeLan) and dehydro residues, places not given here; UniProt P13068 24-51, looked up, fragment)
- decrease in antimicrobial activity compared to nisin [2]: up to 100 fold

Molecule: penicillin
- MIC (S. agalactiae CIT 239): 0.02 µg/mL
- MIC (S. agalactiae CIT 85): 0.012 µg/mL
- MIC (S. agalactiae CIT 87): 0.02 µg/mL
- MIC (S. agalactiae CIT 364): 0.02 µg/mL
- MIC (S. agalactiae CIT 67; [3]): 0.04 µg/mL
- MIC (S. capitis AY41; [3]): 0.39 µg/mL
- MIC (S. capitis BD01; [3]): 6.25 µg/mL
